Measured values as given in ChEMBL document CHEMBL1151258, “New cytotoxic cembranes from the sea pen Gyrophyllum sibogae” (2004).

Key:
Format in all cases: functional
Details in all cases: read-out: ED50 (the source's name)
HT-29 = experiment: Cytotoxicity against human HT-29 cells
DU-145 = experiment: Cytotoxicity against human DU145 cells
[1] = Cytotoxicity against human IGROV cells
K562 = experiment: Cytotoxicity against human K562 cells

Work on C/C1=C/C=C(\C(C)C)C(=O)[C@@H](O)[C@H](C)CCC(=O)[C@H](CO)CCC1 yielded an EC50 (HT-29) of 0.0145 µM, an EC50 (DU-145) of 0.082 µM and an EC50 [1] of 0.0903 µM. The EC50 (K562) was 0.0627 µM.
